SMILES strings stand for the structures.

These results are taken from patent publication US10086039B2, “Lamin A, an activator of longevity/anti-aging SIRT1 protein” (THE UNIVERSITY OF HONG KONG, priority 2012, dated 2018).

For the assay, the system named is H3K9ac. Kind of assay: H3K9ac level in wild-type, SIRT1 null and Lmna null cells (immunoblot, immunofluorescence). It counts as cell-based. Here is the method:
Western blotting was performed as described previously (Liu et al., 2005). Relative band intensity was measured by IMAGE J® and normalized to corresponding wild-type or untreated controls as indicated.
In addition to acetyl p53, H3K9ac is another substrate of SIRT1 deacetylase (Wang et al., 2008). This Example further investigates the effects of resveratrol on H3K9ac in the wild-type, SIRT1^−/− or Lmna null cells. […] Anti-H3K9ac immunofluorescence staining further confirmed the lamin A-dependent activation of SIRT1 by resveratrol (FIG. 3G).
(In general: Immunoblotting shows a protein as a band on a membrane.)

As for `Oc1ccc(C=Cc2cc(O)cc(O)c2)cc1` [resveratrol], the “effect on level of H3K9ac” value runs as follows: (Lmna−/− cells) “completely abrogated”; (SIRT1−/− cells) “completely abrogated”. Moreover, the “level of H3K9ac” value (wild-type cells) was “downregulated”.
